We go through six compounds from patent US10646484B2, “Methods to treat opioid use disorder” (Indivior UK Limited, priority 2017, dated 2020).

For this series, the system named is opioid-dependent subjects. In words: Concentration-QT analysis pooled across clinical studies. As to the method: A concentration QT analysis was performed for the clinical studies conducted with Formulation D. Matching buprenorphine and norbuprenorphine plasma concentrations and 12-lead electrocardiograms (ECGs) were pooled across clinical studies conducted with Formulation D in opioid-dependent subjects. Concentration-QT models were developed to describe the effects of buprenorphine and norbuprenorphine on corrected QT (QTc) interval, after accounting for the effect of relevant concomitant medications and illicit drug use on heart rate and/or QT in opioid-dependent subjects. Data from the following studies were included in the analysis:
Stable doses of SUBUTEX® tablets ranged between 8 and 24 mg depending on the dose cohort.
Twenty subjects received SUBOXONE® film alone.
Subjects were inducted using SUBOXONE® film for 3 days, followed by 4- to 11-day SUBOXONE® film dose adjustment at doses ranging from 8 to 24 mg QD. SUBOXONE® film was tapered in subjects after amendment of study protocol (Day 1: 6 mg, Days 2 and 3: 4 mg, Days 4 and 5: 2 mg).
The following covariates were evaluated on alpha given their potential to affect heart rate: withdrawal symptoms (as measured by Clinical Opiate Withdrawal Scale (COWS)), clonidine and methocarbamol (used to treat withdrawal symptoms), cocaine, phencyclidine, cannabinoids, barbiturates, and methamphetamines (illicit drugs), amphetamines (taken for therapeutic, e.g., attention-deficit/hyperactivity disorder or illicit use), as well as albuterol (known to increase heart rate).
The following covariates were evaluated on QTcAbs: sex, age, opioids known to have an effect on QTc (methadone, oxycodone), opioids that may have an effect on QTc (hydrocodone, morphine, hydromorphone, oxymorphone, heroin, codeine), or opioids (as a general class, with exact type not recorded in CRF), benzodiazepines, barbiturates, triplicate vs single ECG readings, central vs non-centrally read ECGs, and Holter vs non-Holter. Covariates were selected using individual steps of backward elimination. The concentration-related slope was added and the model was refined. Bootstrap and visual predictive checks were conducted to evaluate model performance.
In addition, the bias-corrected two-sided 90% confidence interval of the Delta QTc distribution was determined using the boot package in R (boot( ) function), where an additional nonparametric bootstrap was performed. If the upper limit of the 90% confidence interval was <10 msec, then an effect of Formulation D on QTc was to be ruled out.

Where [1] appears, read: concentration-QT model covariate.

As to `COC(=O)[C@H]1[C@@H](OC(=O)c2ccccc2)C[C@@H]2CC[C@H]1N2C` [cocaine], under setting [1], the “change in QTc associated with concomitant or illicit drug (covariate on QTc)” value (shortened to “change in QTc associated”) is reported as “+1.7 msec”. Regarding `COc1ccc2c3c1O[C@H]1C(=O)CC[C@@]4(O)[C@@H](C2)N(C)CC[C@]314` [oxycodone], the “change in QTc associated” value under setting [1] is -1.5 ms. Same read-out and setting: next, `c1ccc(C2(N3CCCCC3)CCCCC2)cc1` [phencyclidine]: “+3.4 msec”. On the same count and under the same terms, next, `CCC(=O)C(CC(C)N(C)C)(c1ccccc1)c1ccccc1` (stereo not drawn) [methadone]: “+6.1 msec”. As to `OCCOCCN1CCN(C(c2ccccc2)c2ccc(Cl)cc2)CC1` (stereo not drawn) [hydroxyzine], the “change in QTc associated” value (human, in vivo) is reported as “+1.7 msec”.

Take `COc1ccc2c3c1O[C@H]1[C@@H](O)C=C[C@H]4[C@@H](C2)N(C)CC[C@@]341` [codeine]: under setting [1], the “change in QTc associated” value is “+1.3 msec”.
